How the values were obtained:
[1] = tested on: Respiratory syncytial virus recombinant with luciferase (RSV-Luc5) in NHBE cells; experiment: NHBE RSV-Luc5 384-well Assay (RSV FLUC NHBE 384 V2, Ex. W); assay type: cell-based; conditions: human respiratory syncytial virus, 72 h, read-out: EC50 RSV FLUC NHBE 384 V2 (per Ex. W)
Source text: Example W: NHBE RSV-Luc5 384-well Assay (EC50 RSVFLUC NHBE-384)
Normal Human Bronchial Epithelial (NHBE) cells were purchased from Lonza (Walkersville, MD Cat #CC2540) and maintained in BEGM Bronchial Epithelial Cell Growth Medium BulletKit (Lonza CC-3170).
Cells were thawed, expanded, and were used for experiments at passage 2. Respiratory syncytial virus recombinant with luciferase (RSV-Luc5) (≥1×10^7 Infectious Units/mL (IU/mL) determined by TCID50) was purchased from Microbiologics (Saint Cloud, MN). Viral replication was determined in NHBE cells in the following manner.
Compounds are prepared in 100% DMSO in 384-well polypropylene plates (Greiner, Monroe, NC, Cat #784201) with 8 compounds per plate in grouped replicates of 4 at 10 serially diluted concentrations (1:3). The serially diluted compounds were transferred to low dead volume Echo plates (Labcyte, Sunnyvale, CA, Cat #LP-0200).
The test compounds were spotted to 384-well assay plates (Greiner, Monroe, NC, Cat#781091) at 200 nL per well using an Echo acoustic dispenser (Labcyte, Sunnyvale, CA). NHBE cells were harvested and suspended in BEGM Bronchial Epithelial Cell Growth Medium BulletKit and seeded to the pre-spotted assay plates at 5,000 cells per well in 30 μL. RSV-Luc5 virus was diluted in BEGM Bronchial Epithelial Cell Growth Medium BulletKit at 500,000 Infectious Units (IU) per mL and 10 μL per well was added to the assay plates containing cells and compounds, for an MOI of 1. The assay plates were incubated for 3 days at 37° C. and 5% CO2. At the end of incubation, One-Glo reagent (Promega, Madison, WI, Cat #E6120) was prepared. The assay plates and One-Glo reagent were equilibrated to room temperature for at least 15 minutes. 40 μL per well of One-Glo reagent was added and the plates were incubated at room temperature for 15 minutes before reading the luminescence signal on an EnVision multimode plate reader (Perkin Elmer, Waltham, MA). Remdesivir was used as positive control and DMSO was used as negative control. Values were normalized to the positive and negative controls (as 0% and 100% replication, respectively) and data was fitted using non-linear regression analysis by Gilead's dose response tool. The EC50 value for each compound was defined as the concentration reducing the viral replication by 50%.

[2] = GI S9 stability (Ex. Z), rat intestinal S9; assay type: in vitro ADME; conditions: rat intestinal S9, 1.0 mg/mL protein, 2 μM substrate, pH 7.4, read-out: GIS9 Rat T½ (per Ex. Z)
Procedure: (§1) Example Z: GI S9 stability data:
(§2) Stock solutions of test compounds in dimethyl sulfoxide (DMSO) having a final concentration of 10 mM were prepared and used in all experiments. Sekisui XenoTech (Kansas City, KS) provided pooled intestinal S9 fractions. All other chemicals were purchased from Sigma-Aldrich (St. Louis, MO) or VWR (West Chester, PA). Internal Standard/Quench (IS/Q) used to stop reactions was 100 nM labetalol in (by volume) methanol (10%) and acetonitrile (90%).
(§3) Stability in Intestinal S9 Fractions: Duplicate aliquots of test compound or positive control substrate were added to S9 stock diluted with phosphate buffered saline (137 mM NaCl, 2.7 mM KCl, 10 mM phosphate buffer), pH 7.4, to obtain a protein concentration of 1.0 mg/mL. The metabolic reactions were initiated by the addition of the substrates to the S9 reaction mixture to a final concentration of 2 μM. At 0, 10, 20, 30, 60 and 120 min, 25 μL aliquots of the reaction mixture were transferred to plates containing 225 μl of IS/Q solution. After quenching, the plates were centrifuged at 3000×g for 30 minutes. 150 μL aliquots of each supernatant were dried down then reconstituted with 300 μL water. Aliquots (10 μL) of the prepared samples were analyzed on a Thermo Q-Exactive mass spectrometer as described below.
(§4) Liquid Chromatography—Mass Spectrometry: Quantification of test compounds and control substrate was performed by analyte/internal standard peak area ratio (PAR) values measured on a Thermo Q-Exactive mass spectrometer coupled to a Dionex UltiMate 3000 HPLC with a Leap Technologies HTC PAL autosampler. The column used for analysis was a Waters Acquity BEH C18 (1.7 μm particle size, 2.1×50 mm). Mobile phase A consisted of 0.1% (v/v) formic acid in water. Mobile phase B consisted of 0.1% (v/v) formic acid in acetonitrile. Elution of analytes was achieved by a series of linear gradients varying the proportions of A and B. The mass spectrometer was calibrated on a weekly basis and mass tolerance of 5 ppm was used.
(§5) Metabolic stabilities in S9 fractions were determined by measuring the rates of disappearance of test compound and positive control substrate.
(§6) Data (% of substrate remaining) were plotted on a semi-log scale and fitted using an exponential decline model:
(§7) Where Ct—% of substrate remaining at time=t; C0—% of substrate remaining at time=0; t—time; T½—half-life The Half-life (T½) is determined by the following equation: […]
(§8) Assuming a first-order reaction, the slope (k) is extrapolated from the aforementioned plotted data.

[3] = GI S9 stability (Ex. Z), human intestinal S9; assay type: in vitro ADME; conditions: human intestinal S9, 1.0 mg/mL protein, 2 μM substrate, pH 7.4, read-out: GIS9 Human T½ (per Ex. Z)
Procedure: as §1, §2, §3, §4, §5, §6, §7, §8

SMILES | EC50 [1] [µM] | half-life at 2 μM ([2]; pooled intestinal S9 fractions) [min] | half-life at 2 μM ([3]; pooled intestinal S9 fractions) [min] | half-life at 2 μM [2] [min] | half-life at 2 μM [3] [min]
CC(C)C(=O)O[C@H]1[C@H](c2ccc3c(N)ncnn23)O[C@](C#N)(COC(=O)c2ccccc2)[C@H]1O [Compound 22, ((2R,3S,4R,5S)-5-(4-aminopyrrolo[2,1-f][1,2,4]triazin-7-yl)-2-cyano-3-hydroxy-4-(isobutyryloxy)tetrahydrofuran-2-yl)methyl benzoate] | 11.3 | – | – | – | –
CC(=O)OC[C@@]1(C#N)O[C@@H](c2ccc3c(NC(=O)C(C)C)ncnn23)[C@H](O)[C@@H]1O [Compound 23, ((2R,3S,4R,5S)-2-cyano-3,4-dihydroxy-5-(4-isobutyramidopyrrolo[2,1-f][1,2,4]triazin-7-yl)tetrahydrofuran-2-yl)methyl acetate] | 14.9 | – | – | – | –
CC1(C(=O)OC[C@@]2(C#N)O[C@@H](c3ccc4c(N)ncnn34)[C@H](O)[C@@H]2O)CCC1 [Compound 24, ((2R,3S,4R,5S)-5-(4-aminopyrrolo[2,1-f][1,2,4]triazin-7-yl)-2-cyano-3,4-dihydroxytetrahydrofuran-2-yl)methyl 1-methylcyclobutane-1-carboxylate] | 10.8 | – | – | – | –
N#C[C@]1(COC(=O)[C@H]2CCC(=O)O2)O[C@@H](c2ccc3c(N)ncnn23)[C@H](O)[C@@H]1O [Compound 25, ((2R,3S,4R,5S)-5-(4-aminopyrrolo[2,1-f][1,2,4]triazin-7-yl)-2-cyano-3,4-dihydroxytetrahydrofuran-2-yl)methyl (R)-5-oxotetrahydrofuran-2-carboxylate] | 11.7 | 5 | 3 | – | –
CC(C)(C)CC(=O)Nc1ncnn2c([C@@H]3O[C@](C#N)(COC(=O)CC(C)(C)C)[C@@H](O)[C@H]3O)ccc12 [Compound 26, ((2R,3S,4R,5S)-2-cyano-5-(4-(3,3-dimethylbutanamido)pyrrolo[2,1-f][1,2,4]triazin-7-yl)-3,4-dihydroxytetrahydrofuran-2-yl)methyl 3,3-dimethylbutanoate] | 26.6 | – | – | – | –
CCC(C)(C)CC(=O)OC[C@@]1(C#N)O[C@@H](c2ccc3c(N)ncnn23)[C@H](O)[C@@H]1O [Compound 27, ((2R,3S,4R,5S)-5-(4-aminopyrrolo[2,1-f][1,2,4]triazin-7-yl)-2-cyano-3,4-dihydroxytetrahydrofuran-2-yl)methyl 3,3-dimethylpentanoate] | 12.2 | – | – | – | –
CC(=O)OC[C@@]1(C#N)O[C@@H](c2ccc3c(N)ncnn23)[C@H](OC(C)=O)[C@@H]1OC(C)=O [Compound 28, (2R,3S,4S,5S)-2-(acetoxymethyl)-5-(4-aminopyrrolo[2,1-f][1,2,4]triazin-7-yl)-2-cyanotetrahydrofuran-3,4-diyl diacetate] | 24.6 | 5 | 5 | – | –
CC(C)(CF)C(=O)OC[C@@]1(C#N)O[C@@H](c2ccc3c(N)ncnn23)[C@H](O)[C@@H]1O [Compound 29, ((2R,3S,4R,5S)-5-(4-aminopyrrolo[2,1-f][1,2,4]triazin-7-yl)-2-cyano-3,4-dihydroxytetrahydrofuran-2-yl)methyl 3-fluoro-2,2-dimethylpropanoate] | 13 | – | – | – | –
CC(C)C(=O)Nc1ncnn2c([C@@H]3O[C@](C#N)(CO)[C@@H](O)[C@H]3O)ccc12 [Compound 30, N-(7-((2S,3R,4S,5R)-5-cyano-3,4-dihydroxy-5-(hydroxymethyl)tetrahydrofuran-2-yl)pyrrolo[2,1-f][1,2,4]triazin-4-yl)isobutyramide] | 38.5 | 789 | 789 | – | –
N#C[C@]1(COC(=O)C2CC3(CCC3)C2)O[C@@H](c2ccc3c(N)ncnn23)[C@H](O)[C@@H]1O [Compound 32, ((2R,3S,4R,5S)-5-(4-aminopyrrolo[2,1-f][1,2,4]triazin-7-yl)-2-cyano-3,4-dihydroxytetrahydrofuran-2-yl)methyl spiro[3.3]heptane-2-carboxylate] | 6.7 | 2 | 12 | – | –
CC1(CC(=O)OC[C@@]2(C#N)O[C@@H](c3ccc4c(N)ncnn34)[C@H](O)[C@@H]2O)CCC1 [Compound 33, ((2R,3S,4R,5S)-5-(4-aminopyrrolo[2,1-f][1,2,4]triazin-7-yl)-2-cyano-3,4-dihydroxytetrahydrofuran-2-yl)methyl 2-(1-methylcyclobutyl)acetate] | 50 | 31 | 154 | – | –
[H]/N=c1/c2ccc([C@@H]3O[C@](C#N)(CO)[C@@H](O)[C@H]3O)n2ncn1COC(=O)C(C)C [Compound 34, (7-((2S,3R,4S,5R)-5-cyano-3,4-dihydroxy-5-(hydroxymethyl)tetrahydrofuran-2-yl)-4-iminopyrrolo[2,1-f][1,2,4]triazin-3(4H)-yl)methyl isobutyrate] | 39.1 | – | – | – | –
CCC(C)(C)C(=O)OC[C@@]1(C#N)O[C@@H](c2ccc3c(N)ncnn23)[C@H](O)[C@@H]1O [Compound 35, ((2R,3S,4R,5S)-5-(4-aminopyrrolo[2,1-f][1,2,4]triazin-7-yl)-2-cyano-3,4-dihydroxytetrahydrofuran-2-yl)methyl 2,2-dimethylbutanoate] | 9.6 | 124 | 273 | – | –
CC(C)(C)CCC(=O)OC[C@@]1(C#N)O[C@@H](c2ccc3c(N)ncnn23)[C@H](O)[C@@H]1O [Compound 36, ((2R,3S,4R,5S)-5-(4-aminopyrrolo[2,1-f][1,2,4]triazin-7-yl)-2-cyano-3,4-dihydroxytetrahydrofuran-2-yl)methyl 4,4-dimethylpentanoate] | 10.8 | 3 | 11 | – | –
CC[C@@H](C)C(=O)OC[C@@]1(C#N)O[C@@H](c2ccc3c(N)ncnn23)[C@H](O)[C@@H]1O [Compound 37, ((2R,3S,4R,5S)-5-(4-aminopyrrolo[2,1-f][1,2,4]triazin-7-yl)-2-cyano-3,4-dihydroxytetrahydrofuran-2-yl)methyl (R)-2-methylbutanoate] | 9.93 | – | – | – | –
N#C[C@]1(COC(=O)Cc2ccccc2)O[C@@H](c2ccc3c(N)ncnn23)[C@H](O)[C@@H]1O [Compound 38, ((2R,3S,4R,5S)-5-(4-aminopyrrolo[2,1-f][1,2,4]triazin-7-yl)-2-cyano-3,4-dihydroxytetrahydrofuran-2-yl)methyl 2-phenylacetate] | 10.6 | – | – | 12 | 28

— patent publication US20240199676A1, “ANTIVIRAL COMPOUNDS AND METHODS OF MAKING AND USING THE SAME” (Gilead Sciences, Inc., priority 2022, published 2024)
